Experimental data published in US9700637B2, “Reaction-based fluorescent probes for detecting zinc” (Massachusetts Institute of Technology, priority 2013, dated 2017).

Columns and labels:
[1] = Metal ion selectivity of fluorescence response; assay type: physicochemical; conditions: 50 mM PIPES pH 7, 100 mM KCl, 25° C.
Protocol: FIG. 22 depicts metal ion selectivity of DA-ZP1-TPP. Average normalized fluorescence intensities for a 1.1 μM solution of DA-ZP1-TPP in 50 mM PIPES buffer (pH 7) with 100 mM KCl at 25° C., after addition of 50 μM-2 mM concentrations of various metal ions (white bars), followed by addition of 50 μM ZnCl2 (black bars). The grey column represents the average sensor intensity after addition of 100 μM EDTA. Data were normalized to initial measured emission intensity at λex=495 nm.
DA-ZP1-TPP has a zinc-induced fluorescence response and is relatively stable to uncatalyzed hydrolysis and esterase activity. […] Other late 3d-block transition metal ions, such as Co(II) and Cu(II), can coordinate to DA-ZP1-TPP but are generally not available in appreciable chelatable quantities within the cell. In addition to monitoring selectivity in the fluorescence response, we used UV-vis spectroscopy to investigate the rate and zinc-specificity of metal-mediated ester hydrolysis. […] By monitoring the absorbance of the xanthene it system, we could interrogate deacetylation kinetics in a manner that is independent of the fluorescence response. […] To determine whether ester hydrolysis depends on the metal-binding core of DA-ZP1-TPP, we measured the deacetylation kinetics of fluorescein diacetate (DA-FL) under analogous conditions. […]

RWPE-1 cells = experiment: Mitochondrial zinc uptake imaging in prostate cells; assay type: cell-based; conditions: RWPE-1, 50 μM ZnCl2 KSFM, 24 h
Protocol: (§1) FIG. 25 depicts decreased mitochondrial zinc uptake in cancerous cell lines. RWPE-1, RWPE-2, and PC-3 prostate cell lines were incubated for 24 h in medium supplemented with (+) and without (−) 50 μM ZnCl2. RWPE-1 is the only cell line that has a statistically significant (p<0.001) increase in mitochondrial zinc uptake when incubated in zinc-enriched media.
(§2) With a new mitochondrial-targeting sensor in hand, we used DA-ZP1-TPP to investigate the ability of prostate cell lines to accumulate zinc within their mitochondria. RWPE-1 and RWPE-2 are a pair of genetically similar cell lines that retain normal epithelial cell morphology, express cytokeratin markers for prostate epithelial cells, and are hormone sensitive. […] To explore the ability of RWPE-1 and -2 cells to sequester zinc in mitochondria, we measured the fluorescence intensity of DA-ZP1-TPP in both lines after the cells were bathed in normal or zinc-enriched (50 μM ZnCl2) keratinocyte serum-free medium (KSFM) for 24 h prior to imaging. RWPE-1 cells bathed in zinc-enriched medium have a fluorescence signal intensity that is ˜2.3-fold higher than cells bathed in normal medium (FIG. 25). […] Importantly, in both cell lines the observed fluorescence signals from DA-ZP1-TPP are sensitive to ZnPT and TPEN and have good correlation with MitoTracker Red, the Pearson's r values being 0.68±0.09 and 0.59±0.1 for RWPE-1 and -2, respectively. […]

RWPE-2 cells = experiment: as above; assay type: cell-based; conditions: RWPE-2, 50 μM ZnCl2 KSFM, 24 h
Protocol: as §1, §2

PC-3 cells = experiment: as above; assay type: cell-based, human
Protocol: as §1, §2

[2] = cited from earlier work

Compound: CC(=O)Oc1c(Cl)cc2c(c1CN(Cc1ccccn1)Cc1ccccn1)Oc1c(cc(Cl)c(OC(C)=O)c1CN(Cc1ccccn1)Cc1ccccn1)C21OC(=O)c2ccc(C(=O)NCC[P+](c3ccccc3)(c3ccccc3)c3ccccc3)cc21 [DA-ZP1-TPP]
- metal ion selectivity of fluorescence response [1]: responds to Zn(II) over biologically relevant cations such as Ca(II) and Mg(II)
- fluorescence signal intensity, zinc-enriched vs normal medium (RWPE-1 cells): ~2.3 fold
- increase in fluorescence signal, zinc-enriched vs normal medium (RWPE-2 cells): no statistically significant increase
- increase in sensor fluorescence intensity, zinc-enriched medium (PC-3 cells; PC-3, 50 μM ZnCl2, RMPI 1640 with 10% FBS, 24 h): no statistically significant increase
- increase in fluorescence intensity, zinc-supplemented serum-free medium (PC-3 cells; PC-3, serum-free RMPI 1640, 15 μM ZnCl2, 3 h): no statistically significant increase

Compound: O=C(NCC[P+](c1ccccc1)(c1ccccc1)c1ccccc1)c1ccc2c(c1)C1(OC2=O)c2cc(Cl)c(O)c(CN(Cc3ccccn3)Cc3ccccn3)c2Oc2c1cc(Cl)c(O)c2CN(Cc1ccccn1)Cc1ccccn1 [ZP1-TPP]
- pKa of tertiary nitrogen atoms on the DPA units [2]: 6.96
